In series [1] the test system is mouse HSCs. As to the kind of experiment: NK cell differentiation from HSCs under vitamin D3 treatment, FACS analysis of NK1.1-positive cells. It is filed as cell-based. The conditions noted are these: vitamin D3 treated at each stage HSC to pNK to mNK; culture with OP9 and IL-15; FACS (FIG. 15). The protocol: FIG. 15 is a set of graphs showing the result of FACS analysis with NK cell group positive for NK1.1. Vitamin D3 was treated during the whole procedure of differentiation from HSCs of a wild type mouse into mNK via pNK, which was progressed by the cell culture in the presence of OP9 and IL-15, resulting in the confirmation of NK cell group positive for NK1.1.
HSCs isolated from bone marrow in the above Example 1 were inoculated into 6-well plate (Falcon, USA) using a complete RPMI medium supplemented with mouse SCF (30 ng/ ? , BioSource, Camarillo, Calif.), mouse Flt3L (50 ng/ ? , PeproTech, Rocky Hill, N.J.), mouse IL-7 (0.5 ng/ ? , PeproTech), indomethacin (2 g/ ? , Sigma), gentamycin (20 g/ ? ) and 10% fetal bovine serum, at the concentration of 2×10^6 cells/well. The cells were cultured in a 37° C., 5% CO2 incubator for 6 days. […] The purity of the pNK cells was determined by FACS, confirming over 92% purity.
To generate mature NK cells (referred as “mNK cells” hereinafter), collected HSCs were cultured with or without OP9 stromal cells (Science, 265: 1098-1101, 1994) in the presence of mouse IL-15 (20 ng/ ? , PeproTech, USA). […] The purity of the mature NK cells was determined by flow cytometry (FACS) using anti-CD122, NK1.1, DX-5 and NK cell receptor antibodies. […]

The subject of series [2] is mature NK cells. The series is described as follows: 51Cr release assay of mature spleen NK cells treated with IL-2 and vitamin D3. Format: cell-based. Conditions: mature NK cells from wild type mouse spleen, vitamin D3 together with IL-2 for 24 hours (FIG. 17). Here is the method: FIG. 17 is a graph showing the cytotoxicity of mature NK cells, separated from spleen of a wild type mouse, and then treated with IL-2 and/or vitamin D3 for 24 hours, detected by ^51Cr release assay.
(§1) NK cells, differentiated in vitro or isolated from spleen, were treated with IL-2 (10 u/ml), followed by culture for 24 hours. After being washed, NK cells were plated, according to ratios of effector cells to target cells, into a 96 well plate (well round bottom plate, Falcon, USA) containing target cells (^51Cr-labeled Yac-1 cells, 10^4/well), followed by further culture for 4 hours. Upon completion of the culture, radioactivity of 100 ul of supernatant was measured by γ counter (FIG. 9).
Further, mature NK cells were isolated from spleen of a wild type mouse. The cells were treated with vitamin D3 together with IL-2 for 24 hours, followed by ^51Cr release assay (FIG. 17).

Series [3] has as its system Yac-1. As to the kind of experiment: 51Cr release assay of NK cells differentiated in vitro under vitamin D3. It is filed as cell-based, mouse. Conditions: 10 nM vitamin D3 during differentiation, compared with vitamin D3 non-treating group (FIG. 16). Here is the method: FIG. 16 is a graph showing the cytotoxicity, investigated by ^51Cr release assay, of NK cells for a target cell ‘Yac-1’ developed under the treatment of low concentration of vitamin D3 (10 nM). E/T means the ratio of effective cells to target cells.
as §1
To investigate the effect of vitamin D3, known to regulate VDUP1, on NK cell development, 1,25-dihydroxy vitamin D(3) was treated to each stage of differentiation from mouse HSCs into mNK cells via pNK. The cells were matured by the culture in the presence of OP9 and IL-15, then FACS analysis (FIG. 15) and ^51Cr release assay (FIG. 16) were performed.

Structures are written as SMILES.

Regarding `C=C1/C(=C\C=C2/CCC[C@]3(C)[C@@H]([C@H](C)CCCC(C)(C)O)CC[C@@H]23)C[C@@H](O)C[C@@H]1O` [vitamin D3, 1,25-dihydroxy vitamin D(3)], the “NK cell population (NK1.1 positive)” value in series [1] was “increased by vitamin D3 in a dose dependent manner”. Besides, the NK mediated cytotoxicity result in series [2] was “increased”. Also, the “NK mediated cytotoxicity for Yac-1” value in series [3] was “increased”.

Values taken from patent publication US20090042188A1, “Agent for Differentiating Hematopoietic Stem Cell Into Natural Killer Cell Comprising Vdup1 Protein or Gene Encoding the Same, and a Method of Differentiating Hematopoietic Stem Cell Into Natural Killer Cell Using Thereof” (Korea Research Institute of Bioscience and Biotechnology, priority 2005, published 2009).
